The source of these data is patent publication US20120016010A1, “RNA Interference Mediated Inhibition of BTB and CNC Homology 1, Basic Leucine Zipper Transcription Factor 1 (BACH1) Gene Expression Using Short Interfering Nucleic Acid (siNA)” (Merck Sharp & Dohme Corp, priority 2009, published 2012).

[invAb] = inverted abasic unit; m = 2'-O-methyl; r = 2'-OH (RNA); f = 2'-fluoro

Data set [1] relates to Heme Oxygenase-1 (HO-1) protein. As to the kind of experiment: HO-1 protein expression by Western Blot in airway epithelial cells from a COPD subject. The format is cell-based, human. Conditions: FIG. 13, positive controls, 18-hour treatment period. The protocol:
Human airway epithelial cells were obtained by bronchoscopy from a subject with COPD (35-pack years). The cells were seeded at a density of 1×10^5 cells in a 24-well plate and incubated at 37° C. and 5% CO2 overnight. […] Whole cell lysates were created to detect Heme Oxygenase-1 (HO-1) protein expression via Western Blot.
Whole cell lysates were quantified and 5 micrograms of protein per lane were loaded into a 12.5% Tris-HCL gel. A 1:5000 dilution of Anti-Human Heme Oxygenase-1 polyclonal antibody (Assay Designs) was used to detect HO-1 protein levels. The blot was stripped and reprobed with a beta actin antibody to confirm equal loading.
Background: In western blotting, separated proteins are transferred to a membrane and probed.

Data set [2] concerns cigarette smoke-induced lung destruction. The conditions noted are these: Sussan et al (2009); cited from earlier work.
Data set [3] deals with Bach1 mRNA. Briefly: Initial screen: Bach1 mRNA knock-down in human A549 cells (96-well transfection, quantitative RT-PCR). Conditions: Bach1 mRNA, 10 nM siNA, human A549 cells, n = 2, mean ± S.D., normalized to GAPDH and non-targeting control, 24 hrs post-transfection. The format is cell-based.
The test system of data set [4] is Bach1 mRNA. As to the kind of experiment: Initial screen: Bach1 mRNA knock-down in mouse NIH 3T3 cells (96-well transfection, quantitative RT-PCR). The format is cell-based. The conditions noted are these: mouse NIH3T3 cells, n = 2, 24 hrs post-transfection, protocol 10 nM siNA.

As to `C[S+]([O-])CCCCN=C=S` (stereo not drawn) [Sulforaphane], in data set [1], the HO-1 protein expression entry is recorded as “increased HO-1 protein expression”. Take hemin: in data set [1], the HO-1 protein expression entry is on record as “increased HO-1 protein expression”. For `CC1(C)CC[C@]2(C(=O)n3ccnc3)CC[C@]3(C)[C@H](C(=O)C=C4[C@@]5(C)C=C(C#N)C(=O)C(C)(C)[C@@H]5CC[C@]43C)[C@@H]2C1` [CDDO-Im], the “lung oxidative stress markers, alveolar cell apoptosis and the subsequent lung destruction, and pulmonary hypertension” value in data set [2] is “significantly reduce”. Regarding “29982-DC: Bach1 siNA duplex, target site 1752 (mouse); sense B cAuucAAuGcccAAcGGAu TTB (SEQ 113); antisense AUCcGuuGGGcAuuGAAuGUU (SEQ 114) (sense CAUUCAAUGCCCAACGGAUTT; antisense AUCCGUUGGGCAUUGAAUGUU; sense: DNA at AGT, 2'-fluoro at CU, [invAb] at 5' end, 3' end, backbone not given here; antisense: sugars from the 5' end rrrfmffmmmfmffmmmfmmm, backbone not given here)”, the “% KD” value is on record as −9.2 ± 4.6% with Bach1 mRNA [3] and 9 ± 8.9% with Bach1 mRNA [4]. With “29958-DC: Bach1 siNA duplex, target site 851; sense B GucAAAGAcAuucAuGcuu TTB (SEQ 65); antisense AAGcAuGAAuGucuuuGAcUU (SEQ 66) (sense GUCAAAGACAUUCAUGCUUTT; antisense AAGCAUGAAUGUCUUUGACUU; sense: DNA at AGT, 2'-fluoro at CU, [invAb] at 5' end, 3' end, backbone not given here; antisense: sugars from the 5' end rrrfmfmmmfmfffffmmfmm, backbone not given here)”, the “% KD” value with Bach1 mRNA [3] is on record as 75.7 ± 8.6%; in the data set with Bach1 mRNA [4], −50.4 ± 6.8%. Consider “29959-DC: Bach1 siNA duplex, target site 1415; sense B GAGuGuccGuGGuuAGGuA TTB (SEQ 67); antisense UACcuAAccAcGGAcAcuCUU (SEQ 68) (sense GAGUGUCCGUGGUUAGGUATT; antisense UACCUAACCACGGACACUCUU; sense: DNA at AGT, 2'-fluoro at CU, [invAb] at 5' end, 3' end, backbone not given here; antisense: chemistry not given here; in key)”, for which the “% KD” value with Bach1 mRNA [3] is given as 68 ± 14.9%; in the data set on Bach1 mRNA [4], −9.9 ± 3.8%.

Consider “29969-DC: Bach1 siNA duplex, target site 1790 (mouse); sense B GAuuuccAAuccuuGuuGA TTB (SEQ 87); antisense UCAAcAAGGAuuGGAAAucUU (SEQ 88) (sense GAUUUCCAAUCCUUGUUGATT; antisense UCAACAAGGAUUGGAAAUCUU; sense: DNA at AGT, 2'-fluoro at CU, [invAb] at 5' end, 3' end, backbone not given here; antisense: sugars from the 5' end rrrmfmmmmmffmmmmmffmm, backbone not given here)”, for which the “% KD” value in the data set on Bach1 mRNA [3] stood at 36 ± 7.3%; in the data set with Bach1 mRNA [4], 72.7 ± 4.5%. Regarding “29962-DC: Bach1 siNA duplex, target site 1240; sense B cAGGGAAGAuAGuAGuGuu TTB (SEQ 73); antisense AACAcuAcuAucuucccuGUU (SEQ 74) (sense CAGGGAAGAUAGUAGUGUUTT; antisense AACACUACUAUCUUCCCUGUU; sense: DNA at AGT, 2'-fluoro at CU, [invAb] at 5' end, 3' end, backbone not given here; antisense: sugars from the 5' end rrrmffmffmffffffffmmm, backbone not given here)”, the “% KD” value with Bach1 mRNA [3] turned out to be 88 ± 0.7%; in the data set on Bach1 mRNA [4], 21.3 ± 2.2%.

For “29952-DC: Bach1 siNA duplex, target site 732; sense B cAuAuGAGuccAuGuGcuu TTB (SEQ 53); antisense AAGcAcAuGGAcucAuAuGUU (SEQ 54) (sense CAUAUGAGUCCAUGUGCUUTT; antisense AAGCACAUGGACUCAUAUGUU; sense: DNA at AGT, 2'-fluoro at CU, [invAb] at 5' end, 3' end, backbone not given here; antisense: sugars from the 5' end rrrfmfmfmmmfffmfmfmmm, backbone not given here)”, the “% KD” value in the data set with Bach1 mRNA [3] is reported as 75 ± 0.9%; in the data set with Bach1 mRNA [4], −15.7 ± 1.8%.
